{"source": "patent US12115229B2", "about": "“Nanosystems for controlled transport of active molecules for diagnostic, prognostic and therapeutic purposes” (FIDIA FARMACEUTICI S.P.A., priority 2015, dated 2024)", "tested_on": "tumour cell line 4T1 (breast cancer)", "test": "In vitro MTT cytotoxicity assay, 4T1", "assay_type": "cell-based", "protocol": "The cytotoxic activity of Doxo-Hyalusphere was tested on tumour cell lines 4T1 (breast cancer) and A549 (lung cancer), using the in vitro MTT assay.\nFor the purpose of the test, cell line 4T1 was cultured in RPMI medium (Gibco) and A549 in DMEM (Gibco). 10% FBS (foetal bovine serum, Gibco), 1% L-glutamine (Gibco) and 1% penicillin/streptomycin (Gibco) were added to both culture media at the temperature of 37° C. in the presence of 5% CO2.\nThe cells were plated in 24-well microplates (Nunc) (50000 cells per well in 500 μl of medium). After 12 hours, 100 μl of culture medium containing the various conditions studied was added to each well: • 1) Nanoparticles with PEG (PEG-NP); • 2) Nanoparticles with rHyal_Sk (Hyal-NP); • 3) Doxorubicin in solution (Free DOX); • 4) Doxorubicin bonded to nanoparticles (DOX-NP) • 5) Doxo-HyaluSpheres (DOX-Hyal-NP),\nThe nanoparticle concentrations were established at 40000 per cell, and the plates were incubated for 24 and 96 hours. […]\nMetabolic activity was evaluated after 30 minutes by reading the optical density (OD) with an ELISA Reader (Bio-Rad) spectrophotometer at the wavelength of 570 nm. […] The fraction of viable cells was determined on the basis of the ratio between the mean optical density of the treated samples and that of the untreated control sample.", "data": [{"compound": "COc1cccc2c1C(=O)c1c(O)c3c(c(O)c1C2=O)C[C@@](O)(C(=O)CO)C[C@@H]3O[C@H]1C[C@H](N)[C@H](O)[C@H](C)O1", "note": "[Free-DOX, Doxorubicin]", "values": [{"measurement": "tumour cell survival compared with the doxorubicin nanosystems", "setting": "free doxorubicin 0.75 μg/mL", "value": "Quantitatively identical results"}, {"measurement": "cell death", "setting": "free drug equivalent to 3 nM (1.6 ng/mL), 24 and 96 hours", "value": "did not lead to cell death"}]}]}
